Paper PMC10762078, “Role of UPF1-LIN28A interaction during early differentiation of pluripotent stem cells” (Nature Communications, 2024)
Ends that are not written are not given here.

Legend:
His-LIN28A = molecular target: T1, His-LIN28A (Homo sapiens, UniProt Q9H9Z2); assay: SPR kinetic evaluation of peptide binding to immobilised His-LIN28A
T1 construct: purchased LS-bio LS-G637
T1 sequence (Q9H9Z2 1-209): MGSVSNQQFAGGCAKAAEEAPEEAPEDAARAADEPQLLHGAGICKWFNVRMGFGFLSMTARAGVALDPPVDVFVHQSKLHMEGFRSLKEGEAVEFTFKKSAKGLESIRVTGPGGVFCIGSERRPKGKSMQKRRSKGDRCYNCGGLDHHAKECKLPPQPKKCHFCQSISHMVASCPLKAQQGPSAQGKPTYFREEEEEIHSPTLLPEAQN
Experimental: For ligand immobilisation, the nitrilotriacetic acid (NTA) surface gold sensor chip (icluebio) was activated with 5 mM NiCl2 (Xantec) at a flow rate of 30 μL/min, following equalisation with 1× HBS-T buffer. His-LIN28A (LS-bio, LS-G637) was used as a ligand protein and was applied to a sensor chip at a flow rate of 10 μL/min for 40 min after dilution in 1× HEPES-buffered saline (HBS-T) buffer at a 1/20 ratio. Approximately 1000 resonance units (RU) were bonded to the sensor chip after ligand immobilisation. RU was measured using iMSPR-ProX (icluebio). An indigenous NTA sensor chip was used as a reference channel.
Kinetics assessment was performed for peptides with RU values greater than 5.

p-UPF1 (Thr28) = assay: Western blot of p-UPF1 (Thr28) in CPP-peptide-treated hPSCs; assay type: cell-based, human; details: relative to CPP-P1 = 100, n = 3
Experimental: For CPP-conjugated peptide delivery, HeLa, 293T, and PA-1 cells were incubated with CPP-conjugated peptides or CPP-FITC at 2 μM in DMEM with 10% FBS for 12 h a day before cell harvest. hPSCs were treated with CPP-conjugated peptides at 10 μM in mTeSR Plus Medium, and the peptide-containing medium was changed every day over 10 days. The ROCK inhibitor (Tocris Bioscience, Y-27632) treated-hPSCs were dissociated into single cells using Accutase (Merck, SCR005) and differentiated into ectoderm, mesoderm, and endoderm using the STEMdiff Trilineage Differentiation Kit ([…] Technologies, 05230) following the manufacturer’s protocol. Differentiated cells treated with CPP-conjugated peptides were analysed at 0, 3, and 5 days for ectoderm and endoderm, and at 0, 3, and 4 days for mesoderm.
Protein samples were loaded for electrophoresis on sodium dodecyl sulphate (SDS) polyacrylamide gels, followed by Coomassie blue staining or transferred to nitrocellulose membranes (Cytiva) for WB. After blocking with 5% non-fat milk (Cellconic) in Tris-buffered saline with Tween-20 for 30 min at room temperature, the membranes were incubated with the following primary antibodies: anti-FLAG (GenScript, A00187; 1:2000), UPF1 (Cell Signaling Technology, 12040; 1:4000), UPF2 (Cell Signaling Technology, 11875; 1:2000), eIF4E (Cell Signaling Technology, 2067; 1:2000), β-actin (Sigma-Aldrich, A2228; 1:4000), GST (Cytiva, 27-4577-01; 1:2000), MYC (Calbiochem, OP10; 1:2000), Calnexin (Cell Signaling Technology, 2679; 1:4000), LIN28A (Cell Signaling Technology, 3978; 1:2000), pSer1096 phosphorylated UPF1 (1:2000)[58], or p-Thr28 phosphorylated UPF1 (ImmuQuest, IQ653; 1:2000). Primary antibodies were incubated overnight at 4 °C and then washed thrice with TBS-T, followed by incubation with secondary antibodies: Goat anti-Rabbit IgG (Invitrogen, 31460; 1:4000), Goat anti-Mouse IgG (Invitrogen, 31430; 1:4000), or Horse anti-Goat IgG (Vector Laboratories, PI-9500; 1:4000) for 1 h at room temperature. For pull-downed protein detection, all primary and secondary antibodies were diluted at 1:10,000. The blots were imaged using ChemiDoc XRS+ System (Bio-Rad) and the greyscale intensity values were quantified using Image Lab 3.0 software (Bio-Rad).
DAPI FITC Merge DAPI FITC Merge CHA15 H9 Pro2 H9
No peptide CPP-FITC Calnexin
For 2-day treatm ent For 4-day treatm ent […]
Student’s t-test was used. Data are presented as m ean values ± S.D (b) and mean values ± SEM (c and d). All statistical test us ed wer e two-s ided. T he m inim um num ber of independent biological replicate experim ents was a, b, and d n = 3, c n = 5. T he experim ents wer e conducted three tim es, each iteration producing consistent results. […]

Row | Substance | kd (His-LIN28A; His-LIN28A ligand, peptide analyte 30 to 0.95 μM, HBS-T) | kon (His-LIN28A; His-LIN28A ligand, peptide analyte 30 to 0.95 μM, HBS-T, read-out: ka) | binding affinity to LIN28A (His-LIN28A; diverse concentrations) | p-UPF1 (Thr28)/Calnexin, mean (p-UPF1 (Thr28); CHA15, 2-day treatment) | p-UPF1 (Thr28)/Calnexin, mean (p-UPF1 (Thr28); H9, 2-day treatment) | p-UPF1 (Thr28)/Calnexin, mean (p-UPF1 (Thr28); H9, 4-day treatment) | p-UPF1 (Thr28)/Calnexin, mean (p-UPF1 (Thr28); Pro2, 2-day treatment)
1 | KKKWCRKKKSSADEKRYRALKRTAERELLMNA [P8] | 0.0137 s⁻¹ | 2640 M⁻¹ s⁻¹ | high binding affinity to LIN28A | 277% | 91% | 183% | 250%
2 | N-QKLDQKELQLEPM-C [P1, reference compound] | – | – | – | 100% | 100% | 100% | 100%
